Assay results taken from PMC5029682, “Discovery and characterization of Isofistularin-3, a marine brominated alkaloid, as a new DNA demethylating agent inducing cell cycle arrest and sensitization to TRAIL in cancer cells” (Oncotarget, 2016).

Tests used:
[1] = target: T1, DNMT1 (Homo sapiens, UniProt P26358); assay: in vitro DNMT activity/inhibition assay with purified DNMT1, positive control; type: biochemical
[2] = target: T1, DNMT1; assay: in vitro DNMT activity/inhibition assay (colorimetric, Active Motif) with purified DNMT1; type: biochemical

T1 sequence (P26358 whole entry): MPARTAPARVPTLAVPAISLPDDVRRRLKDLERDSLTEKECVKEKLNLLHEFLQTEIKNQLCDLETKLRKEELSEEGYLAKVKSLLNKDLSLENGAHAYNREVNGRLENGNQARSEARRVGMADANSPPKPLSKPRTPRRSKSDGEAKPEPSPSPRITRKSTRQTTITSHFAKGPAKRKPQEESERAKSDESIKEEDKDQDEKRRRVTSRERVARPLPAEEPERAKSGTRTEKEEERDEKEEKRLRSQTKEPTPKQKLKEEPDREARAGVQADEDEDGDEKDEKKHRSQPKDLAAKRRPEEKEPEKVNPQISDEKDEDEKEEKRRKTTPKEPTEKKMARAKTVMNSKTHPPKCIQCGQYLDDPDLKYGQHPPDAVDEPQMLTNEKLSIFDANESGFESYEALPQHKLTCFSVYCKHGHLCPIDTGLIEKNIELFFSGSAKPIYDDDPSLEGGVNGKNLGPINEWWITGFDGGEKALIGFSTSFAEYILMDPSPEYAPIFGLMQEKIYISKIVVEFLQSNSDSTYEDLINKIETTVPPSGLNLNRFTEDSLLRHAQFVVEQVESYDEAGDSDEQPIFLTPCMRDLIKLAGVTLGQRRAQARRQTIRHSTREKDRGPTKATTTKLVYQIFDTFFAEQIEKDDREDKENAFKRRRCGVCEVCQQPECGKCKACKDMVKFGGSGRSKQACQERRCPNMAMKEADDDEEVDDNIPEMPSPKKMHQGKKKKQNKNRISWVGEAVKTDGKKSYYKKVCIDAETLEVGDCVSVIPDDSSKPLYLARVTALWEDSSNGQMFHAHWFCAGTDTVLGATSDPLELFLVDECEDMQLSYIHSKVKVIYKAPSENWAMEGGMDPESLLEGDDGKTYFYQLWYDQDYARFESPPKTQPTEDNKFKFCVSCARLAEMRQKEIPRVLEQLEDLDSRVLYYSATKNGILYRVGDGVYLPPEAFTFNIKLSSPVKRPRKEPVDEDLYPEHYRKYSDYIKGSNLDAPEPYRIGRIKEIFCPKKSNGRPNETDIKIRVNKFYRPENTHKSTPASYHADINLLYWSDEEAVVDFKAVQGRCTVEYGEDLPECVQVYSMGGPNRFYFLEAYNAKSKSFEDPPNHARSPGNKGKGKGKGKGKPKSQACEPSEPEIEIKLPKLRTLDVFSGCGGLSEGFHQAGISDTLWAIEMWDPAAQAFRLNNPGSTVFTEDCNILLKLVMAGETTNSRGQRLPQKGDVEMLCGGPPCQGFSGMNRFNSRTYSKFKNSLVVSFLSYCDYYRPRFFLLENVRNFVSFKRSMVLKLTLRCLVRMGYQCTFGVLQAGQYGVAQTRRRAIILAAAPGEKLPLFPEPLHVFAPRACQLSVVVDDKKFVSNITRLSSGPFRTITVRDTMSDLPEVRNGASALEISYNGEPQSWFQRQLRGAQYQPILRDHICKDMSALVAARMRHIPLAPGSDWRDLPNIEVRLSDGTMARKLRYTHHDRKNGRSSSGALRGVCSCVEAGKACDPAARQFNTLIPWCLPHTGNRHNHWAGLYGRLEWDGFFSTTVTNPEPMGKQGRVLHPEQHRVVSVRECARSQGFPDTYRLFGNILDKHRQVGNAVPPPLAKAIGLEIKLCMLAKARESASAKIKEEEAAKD

Row | Structure (SMILES) | in vitro DNMT activity/inhibition assay with purified DNMT1, positive control [1] | IC50 [2]
1 | O=C(O[C@@H]1Cc2c(O)cc(O)cc2O[C@@H]1c1cc(O)c(O)c(O)c1)c1cc(O)c(O)c(O)c1 [EGCG, Epigallocatechin gallate] | Green tea polyphenol EGCG was used as a positive control for in vitro DNMT1 inhibition. | 
2 | COC1=C(Br)[C@H](O)[C@@]2(C=C1Br)CC(C(=O)NCC(O)COc1c(Br)cc(C(O)CNC(=O)C3=NO[C@]4(C=C(Br)C(OC)=C(Br)[C@@H]4O)C3)cc1Br)=NO2 (some centres unmarked) [Iso-3, Isofistularin-3] |  | 13.5 ± 5.4 µM
